# Results reported in article PMC5518309 (ChemMedChem, 2014).
# Numbered stars: 1 amine (or outer) side, 2 acyl side, 3 side chain; on linkers, the order of the positions; unused ones are H or OH. Side chains are listed from the residue outwards. Ends that are not written are not given here. Peptide text beside a SMILES is read from it. * marks the point of attachment. γGlu = O=C(O)[C@H](CCC(=O)[*:2])N[*:1]; Octanoyl = CCCCCCCC(=O)*
# How the values were obtained:
# Assay type in all cases: cell-based
# hY2R = molecular target: T1, hY2R (Homo sapiens, UniProt P49146); test: Inositol phosphate accumulation assay, hY2R; settings: for Emax: read-out: hY2R Emax
# T1 sequence (P49146 1-381): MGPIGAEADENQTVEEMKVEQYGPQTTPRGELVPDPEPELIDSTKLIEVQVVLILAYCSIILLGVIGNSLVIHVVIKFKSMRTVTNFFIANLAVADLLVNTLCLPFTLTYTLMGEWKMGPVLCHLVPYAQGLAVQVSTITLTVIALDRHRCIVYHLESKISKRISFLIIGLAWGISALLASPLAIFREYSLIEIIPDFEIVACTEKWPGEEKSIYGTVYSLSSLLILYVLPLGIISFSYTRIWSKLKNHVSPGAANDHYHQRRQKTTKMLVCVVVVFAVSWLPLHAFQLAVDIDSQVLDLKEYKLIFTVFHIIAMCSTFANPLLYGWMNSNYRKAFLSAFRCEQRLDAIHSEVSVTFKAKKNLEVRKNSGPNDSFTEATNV
# hY4R = hY4R (Homo sapiens, UniProt P50391); test: Inositol phosphate accumulation assay, hY4R; settings: for Emax: read-out: hY4R Emax
# hY4R, sequence (P50391 whole entry): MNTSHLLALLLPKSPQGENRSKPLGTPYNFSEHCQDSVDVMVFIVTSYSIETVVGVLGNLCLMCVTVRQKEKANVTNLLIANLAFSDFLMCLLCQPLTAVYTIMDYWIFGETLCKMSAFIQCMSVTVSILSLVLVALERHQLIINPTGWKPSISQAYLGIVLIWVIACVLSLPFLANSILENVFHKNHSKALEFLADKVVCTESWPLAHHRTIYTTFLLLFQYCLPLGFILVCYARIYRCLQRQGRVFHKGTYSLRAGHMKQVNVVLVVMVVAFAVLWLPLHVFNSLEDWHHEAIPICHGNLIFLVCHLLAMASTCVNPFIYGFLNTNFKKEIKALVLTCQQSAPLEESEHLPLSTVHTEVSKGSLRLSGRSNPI
# hY5R = molecular target: T2, hY5R (Homo sapiens, UniProt Q15761); test: Inositol phosphate accumulation assay, hY5R; settings: for Emax: read-out: hY5R Emax
# T2 sequence (Q15761 1-445): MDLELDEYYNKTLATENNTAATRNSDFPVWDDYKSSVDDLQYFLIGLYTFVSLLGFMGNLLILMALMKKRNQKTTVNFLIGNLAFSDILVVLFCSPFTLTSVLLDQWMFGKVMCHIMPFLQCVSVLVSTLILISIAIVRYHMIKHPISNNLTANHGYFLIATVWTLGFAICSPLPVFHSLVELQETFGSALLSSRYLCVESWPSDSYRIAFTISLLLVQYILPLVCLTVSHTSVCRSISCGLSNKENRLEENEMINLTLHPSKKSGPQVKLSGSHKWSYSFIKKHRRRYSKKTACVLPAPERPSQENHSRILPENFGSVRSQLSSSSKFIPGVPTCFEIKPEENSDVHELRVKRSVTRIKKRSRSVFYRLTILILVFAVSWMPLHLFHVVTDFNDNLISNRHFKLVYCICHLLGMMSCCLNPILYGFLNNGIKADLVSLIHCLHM
# hY1R = molecular target: T3, hY1R (Homo sapiens, UniProt P25929); test: Inositol phosphate accumulation assay, hY1R; settings: for Emax: read-out: hY1R Emax
# T3 sequence (P25929 1-384): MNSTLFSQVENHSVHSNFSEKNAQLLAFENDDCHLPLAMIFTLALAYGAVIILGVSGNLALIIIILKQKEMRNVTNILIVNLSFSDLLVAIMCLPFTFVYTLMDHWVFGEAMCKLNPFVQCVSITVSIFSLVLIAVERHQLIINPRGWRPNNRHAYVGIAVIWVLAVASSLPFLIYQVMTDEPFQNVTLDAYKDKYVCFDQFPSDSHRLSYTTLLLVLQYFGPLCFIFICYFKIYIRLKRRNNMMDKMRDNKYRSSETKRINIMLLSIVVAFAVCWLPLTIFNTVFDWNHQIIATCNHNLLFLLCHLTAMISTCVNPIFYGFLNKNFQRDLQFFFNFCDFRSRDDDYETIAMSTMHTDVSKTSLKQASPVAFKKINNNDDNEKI
EC50 (hY2R),Emax (hY2R),EC50 (hY4R),Emax (hY4R),EC50 (hY5R),Emax (hY5R),EC50 (hY1R),Emax (hY1R),Compound
> 1000 nM,88 ± 7%,3.1 nM,91 ± 4%,26 nM,84 ± 4%,> 1000 nM,84 ± 4%,"CCCCCCCC(=O)N[C@@H](CCC(=O)NCCCC[C@H](NC(=O)[C@H](C)NC(=O)[C@H](Cc1ccc(O)cc1)NC(=O)[C@H](CCC(N)=O)NC(=O)[C@H](C)NC(=O)[C@H](CCSC)NC(=O)[C@H](CCC(N)=O)NC(=O)[C@H](CCC(=O)O)NC(=O)[C@@H]1CCCN1C(=O)[C@@H](NC(=O)[C@H](C)NC(=O)[C@H](CC(N)=O)NC(=O)[C@H](CC(=O)O)NC(=O)CNC(=O)[C@@H]1CCCN1C(=O)[C@H](Cc1ccc(O)cc1)NC(=O)[C@@H](NC(=O)[C@@H]1CCCN1C(=O)[C@H](CCC(=O)O)NC(=O)[C@H](CC(C)C)NC(=O)[C@@H]1CCCN1)C(C)C)[C@@H](C)O)C(=O)N[C@@H](CC(=O)O)C(=O)N[C@@H](CC(C)C)C(=O)N[C@@H](CCCNC(=N)N)C(=O)N[C@@H](CCCNC(=N)N)C(=O)N[C@@H](Cc1ccc(O)cc1)C(=O)N[C@H](C(=O)N[C@@H](CC(N)=O)C(=O)N[C@@H](CCSC)C(=O)N[C@@H](CC(C)C)C(=O)N[C@H](C(=O)N[C@@H](CCCNC(=N)N)C(=O)N1CCC[C@H]1C(=O)N[C@@H](CCCNC(=N)N)C(=O)N[C@@H](Cc1ccc(O)cc1)C(N)=O)[C@@H](C)O)[C@@H](C)CC)C(=O)O [compound 10, [K^22(E-Capr)]hPP2–36] (H-PLEPVYPGDNATPEQMAQYAK([γGlu-Octanoyl])DLRRYINMLTRPRY-NH2)"
–,96 ± 5%,–,–,–,90 ± 5%,–,95 ± 3%,"CC[C@H](C)[C@H](NC(=O)[C@H](Cc1ccc(O)cc1)NC(=O)[C@H](CCCNC(=N)N)NC(=O)[C@H](CCCNC(=N)N)NC(=O)[C@H](CC(C)C)NC(=O)[C@H](CC(=O)O)NC(=O)[C@H](C)NC(=O)[C@H](C)NC(=O)[C@H](Cc1ccc(O)cc1)NC(=O)[C@H](CCC(N)=O)NC(=O)[C@H](C)NC(=O)[C@H](CCSC)NC(=O)[C@H](CCC(N)=O)NC(=O)[C@H](CCC(=O)O)NC(=O)[C@@H]1CCCN1C(=O)[C@@H](NC(=O)[C@H](C)NC(=O)[C@H](CC(N)=O)NC(=O)[C@H](CC(=O)O)NC(=O)CNC(=O)[C@@H]1CCCN1C(=O)[C@H](Cc1ccc(O)cc1)NC(=O)[C@@H](NC(=O)[C@@H]1CCCN1C(=O)[C@H](CCC(=O)O)NC(=O)[C@H](CC(C)C)NC(=O)[C@@H]1CCCN1C(=O)[C@H](C)N)C(C)C)[C@@H](C)O)C(=O)N[C@@H](CC(N)=O)C(=O)N[C@@H](CCSC)C(=O)N[C@@H](CC(C)C)C(=O)N[C@H](C(=O)N[C@@H](CCCNC(=N)N)C(=O)N1CCC[C@H]1C(=O)N[C@@H](CCCNC(=N)N)C(=O)N[C@@H](Cc1ccc(O)cc1)C(N)=O)[C@@H](C)O [1a, hPP, reference compound]"
–,–,1.4 nM,95 ± 4%,23.9 nM,79 ± 4%,> 1000 nM,93 ± 5%,"PLEPVYPGDNATPEQMAQYAADLRRYINKLTRPRY-NH2 [14a, [K^30]hPP2–36]"
